# Experimental data taken from US6929799B2, “D-alanine racemase mutants of mycobacteria and uses therefore” (priority 2001, dated 2005).
# Like-named read-outs stand apart in the source and are kept apart here.
# Experiments:
# [1] = test system: M. smegmatis TAM23 alr mutant; assay: MIC by microplate twofold dilution, alr mutant strain; format: cell-based, Mycobacterium smegmatis; details: for MIC: Mycolicibacterium smegmatis, TAM23ALRMUTANT
# [2] = test system: M. smegmatis wild type mc2155; assay: microbe, parasite or virus in culture; format: cell-based, Mycobacterium smegmatis; details: for MIC: Mycolicibacterium smegmatis
# [3] = molecular target: M. smegmatis D-alanine racemase (AlrA) (Mycolicibacterium smegmatis, UniProt P94967); details: Caceres et al., 1997; listed as DCS; cited from earlier work
# [4] = test system: D-alanine ligase; details: David, 1969; Chacon, Ph.D. thesis; cited from earlier work
# [5] = test system: M. smegmatis mc2155; format: cell-based, Mycobacterium smegmatis
# [6] = test system: M. smegmatis TAM23; assay: Bactericidal action of DCS in broth culture, alr mutant strain; format: cell-based, Mycobacterium smegmatis
# [7] = 48 h, read-out: Minimal Inhibitory Concentration (MIC), TAM23 alr mutant, inoculum grown with 50 mM D-alanine, Middlebrook 7H9, 48 h
# [8] = 48 h, read-out: Minimal Inhibitory Concentration (MIC), TAM23 alr mutant, inoculum grown without D-alanine, Middlebrook 7H9, 48 h
# [9] = MC2155, 48 h, read-out: Minimal Inhibitory Concentration (MIC)
# M. smegmatis D-alanine racemase (AlrA), sequence (P94967 whole entry): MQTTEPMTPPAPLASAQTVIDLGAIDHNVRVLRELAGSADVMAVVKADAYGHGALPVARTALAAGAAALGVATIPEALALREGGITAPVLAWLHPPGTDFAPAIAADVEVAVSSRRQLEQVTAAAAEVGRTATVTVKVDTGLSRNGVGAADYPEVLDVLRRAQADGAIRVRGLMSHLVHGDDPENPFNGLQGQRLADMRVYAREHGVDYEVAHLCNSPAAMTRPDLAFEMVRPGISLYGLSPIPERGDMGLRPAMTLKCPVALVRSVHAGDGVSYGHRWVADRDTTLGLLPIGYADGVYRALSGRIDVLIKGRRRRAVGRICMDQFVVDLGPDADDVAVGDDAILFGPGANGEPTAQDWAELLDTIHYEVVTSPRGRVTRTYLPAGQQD
Compound,"MIC [1, 7] [µg/mL]","MIC [1, 8] [µg/mL]","MIC [2, 9] [µg/mL]",Inhibition of D-alanine racemase [3],"MIC ([1]; TAM23, independent of prior growth conditions of the inocula, read-out: MIC with D-alanine added directly into the MIC test cultures) [µg/mL]","MIC for TAM23, times lower than the MIC for the wild-type strain ([1]; inoculum grown with D-alanine, washed)",Sensitivity of TAM23 relative to wild type (MIC ratio) ([1]; inoculum grown without D-alanine),Inhibition of D-alanine ligase activity [4],Minimal Inhibitory Concentration (MIC) [2] [µg/mL],"MIC ([2]; MC2155, read-out: MIC with D-alanine added directly into the MIC test cultures) [µg/mL]",Bactericidal effect (optical density and viable counts) [5],"Bactericidal effect (optical density and viable counts) ([6]; DCS at 50 times the MIC (128 μg/ml), broth without D-alanine, up to 72 h)","Bactericidal drug concentration for mutant strain, fold lower than for wild-type strain ([6]; absolute drug concentrations) [fold]"
"CO[C@H]1/C=C/O[C@@]2(C)Oc3c(C)c(O)c4c(c3C2=O)C2=NC3(CCN(CC(C)C)CC3)NC2=C(NC(=O)/C(C)=C\C=C\[C@H](C)[C@H](O)[C@@H](C)[C@@H](O)[C@@H](C)[C@H](OC(C)=O)[C@@H]1C)C4=O [Rifabutin, rifabutin]",1,2,2,–,–,–,–,–,–,–,–,–,–
"CC[C@@H](CO)NCCN[C@@H](CC)CO [Ethambutol, ethambutol]",3.13,3.13,3.13,–,–,–,–,–,–,–,–,–,–
"N[C@@H]1CON=C1O [D-Cycloserine, D-cycloserine]",10.2,2.56,75,inhibited by DCS in a concentration-dependent manner,1200,about 7.5 times,about 30 fold,inhibited,75.0,1200,rapid death by lysis,rapid death by lysis,30
"NCC[C@H](O)C(=O)N[C@@H]1C[C@H](N)[C@@H](O[C@H]2O[C@H](CN)[C@@H](O)[C@H](O)[C@H]2O)[C@H](O)[C@H]1O[C@H]1O[C@H](CO)[C@@H](O)[C@H](N)[C@H]1O [Amikacin, amikacin]",1.56,1.56,1.56,–,–,–,–,–,–,–,–,–,–
